What is called EC50 is the concentration that produces a half-maximal response.

Here are results for 1 compound from patent publication US9051551B2, “Methods and compositions for increasing sensitivity to tyrosine kinase inhibitors” (The University of Western Australia, priority 2009, dated 2015).

For data set [1] the following is noted: cited from earlier work.
The subject of data set [2] is FaDu HNC cell line. Briefly: Erlotinib sensitivity assay (CellTitre 96 cell viability). The note with it: Homo sapiens, 72 h, read-out: Erlotinib sensitivity (EC50).
In data set [3] the test system is SCC-9 HNC cell line. The description is as above. The note with it: Homo sapiens, SCC-9, 72 h, read-out: Erlotinib sensitivity (EC50).
The subject of data set [4] is HN5 HNC cell line. Described as above. The note with it: Homo sapiens, HN5, 72 h, read-out: Erlotinib sensitivity (EC50).

Take `C#Cc1cccc(Nc2ncnc3cc(OCCOC)c(OCCOC)cc23)c1` [erlotinib, N-(3-ethynylphenyl)-6,7-bis(2-methoxyethoxy)quinazolin-4-amine]: the “Concentration in serum of patients treated with erlotinib” value in data set [1] was 3000 to 10000 nM. Further, the EC50 came to 8260 nM in data set [2], 2150 nM in data set [3] and 640 nM in data set [4].
